Results published in patent publication US10722514B2 (FLX Bio, Inc., priority 2017, dated 2020).
Counter-ions that a name gives are not always drawn.

Target: T1, recombinant full-length USP7 (Homo sapiens, UniProt Q93009)
T1 construct: A 25 μl reaction volume containing recombinant full-length USP7 (62 pM)
Experiment: USP7-mediated ubiquitin-rhodamine cleavage assay
Type: biochemical
Settings: recombinant full-length USP7 62 pM; ubiquitin-rhodamine 100 nM; 30-minute incubation with compound, 1 hour reaction at room temperature; read-out: Potency: USP7 IC50
Procedure, shortened: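 Enzyme 62 pM; HEPES pH 7.3/150 mM NaCl/1 mM TCEP/125 μg/ml BSA; 1% DMSO; 30 min cpd preinc RT; Ub-rhodamine 100 nM, 1 h RT, dark; acetic acid stop; fluorescence; IC50 4-param fit.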

T1 sequence (Q93009 whole entry): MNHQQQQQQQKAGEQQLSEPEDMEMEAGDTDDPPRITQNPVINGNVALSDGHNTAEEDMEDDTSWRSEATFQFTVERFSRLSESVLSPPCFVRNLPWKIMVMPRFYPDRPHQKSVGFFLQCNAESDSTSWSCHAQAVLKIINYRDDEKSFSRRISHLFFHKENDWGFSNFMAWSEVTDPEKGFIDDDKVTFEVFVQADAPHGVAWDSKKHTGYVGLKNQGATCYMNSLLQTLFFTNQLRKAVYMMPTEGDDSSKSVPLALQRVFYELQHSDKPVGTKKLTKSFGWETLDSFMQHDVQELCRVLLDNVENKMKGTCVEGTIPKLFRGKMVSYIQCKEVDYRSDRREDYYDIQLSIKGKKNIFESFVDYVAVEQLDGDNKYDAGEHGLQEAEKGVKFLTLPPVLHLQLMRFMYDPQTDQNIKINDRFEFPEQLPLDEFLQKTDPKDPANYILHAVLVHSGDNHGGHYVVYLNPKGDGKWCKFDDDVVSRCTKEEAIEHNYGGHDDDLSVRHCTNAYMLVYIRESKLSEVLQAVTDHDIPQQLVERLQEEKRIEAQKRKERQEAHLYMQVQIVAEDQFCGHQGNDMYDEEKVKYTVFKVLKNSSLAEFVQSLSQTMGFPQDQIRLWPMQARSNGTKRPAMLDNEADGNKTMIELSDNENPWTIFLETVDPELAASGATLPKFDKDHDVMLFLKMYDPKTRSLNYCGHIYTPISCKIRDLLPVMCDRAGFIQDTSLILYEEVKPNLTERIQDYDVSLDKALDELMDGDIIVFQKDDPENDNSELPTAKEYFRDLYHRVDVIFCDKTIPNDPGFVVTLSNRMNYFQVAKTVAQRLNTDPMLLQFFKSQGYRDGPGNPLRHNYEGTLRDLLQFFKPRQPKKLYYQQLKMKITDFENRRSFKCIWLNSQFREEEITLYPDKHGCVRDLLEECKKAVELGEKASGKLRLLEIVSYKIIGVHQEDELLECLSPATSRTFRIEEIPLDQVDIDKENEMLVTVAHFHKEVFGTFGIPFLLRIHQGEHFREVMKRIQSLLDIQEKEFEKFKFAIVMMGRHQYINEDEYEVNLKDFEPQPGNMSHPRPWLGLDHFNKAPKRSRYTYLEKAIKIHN

| Compound | IC50 [nM] |
| --- | --- |
| Cc1cc(Cl)cc(-c2ccnc3cc(CN4C(=O)CCC4=O)sc23)c1O[C@@H]1CCCNCC1 [Example 270, (R)-1-((7-(2-(Azepan-4-yloxy)-5-chloro-3-methylphenyl)thieno[3,2-b]pyridin-2-yl)methyl)pyrrolidine-2,5-dione] | < 1000 |
| Cc1cc(Cl)cc(-c2ccnc3ccsc23)c1OC1CCC(=O)NC1 (stereo not shown) [Example 198, 5-(4-Chloro-2-methyl-6-(thieno[3,2-b]pyridin-7-yl)phenoxy)piperidin-2-one] | > 30000 |
| Cc1cc(Cl)cc(-c2ncnc3cc(CN4C(=O)CCC4=O)sc23)c1O[C@H]1CC[C@H](C)NC1 [Example 338, 1-[[4-[5-chloro-3-methyl-2-[[(3S,6S)-6-methyl-3-piperidyl]oxy]phenyl]thieno[3,2-d]pyrimidin-6-yl]methyl]pyrrolidine-2,5-dione dihydrochloride] | < 1000 |
| Cc1cc(C(F)(F)F)cc(-c2ccnc3cc(CN4C(=O)CCC4=O)sc23)c1O[C@H]1CCCNC1 [Example 254, (S)-1-((7-(3-Methyl-2-(piperidin-3-yloxy)-5-(trifluoromethyl)phenyl)thieno[3,2-b]pyridin-2-yl)methyl)pyrrolidine-2,5-dione] | < 1000 |
| CCC(O)c1cc2nccc(-c3cc(C#N)cc(C)c3OCC3(C#N)CNC3)c2s1 (stereo not shown) [Example 10, 3-((4-Cyano-2-(2-(1-hydroxypropyl)thieno[3,2-b]pyridin-7-yl)-6-methylphenoxy)methyl)azetidine-3-carbonitrile] | < 1000 |
| Cc1cc(Cl)cc(-c2ccnc3cc(CN4C(=O)CCC4=O)sc23)c1O[C@H]1CCCNCC1 [Example 269, (S)-1-((7-(2-(Azepan-4-yloxy)-5-chloro-3-methylphenyl)thieno[3,2-b]pyridin-2-yl)methyl)pyrrolidine-2,5-dione] | < 1000 |
| CCC(O)c1cc2nccc(-c3cc(Cl)cc(C)c3O[C@@H]3CN[C@H](C(C)(C)O)C3)c2s1 (stereo partly drawn) [Example 86, 1-(7-(5-Chloro-2-(((3S,5S)-5-(2-hydroxypropan-2-yl)pyrrolidin-3-yl)oxy)-3-methylphenyl)thieno[3,2-b]pyridin-2-yl)propan-1-ol] | 1000 to 10000 |
| Cc1cc(Cl)cc(-c2ccnc3cc(CN4C(=O)CCC4=O)sc23)c1O[C@@H]1CNC[C@@H]1C [Example 105, 1-((7-(5-Chloro-3-methyl-2-(((3S,4S)-4-methylpyrrolidin-3-yl)oxy)phenyl)thieno[3,2-b]pyridin-2-yl)methyl)pyrrolidine-2,5-dione] | < 1000 |

More lines, now with the values ahead:

| IC50 [nM] | Compound |
| --- | --- |
| < 1000 | Cc1cc(Cl)cc(-c2ccnc3cc([C@H](C)n4c(=O)ccn(C)c4=O)sc23)c1O[C@H]1CCCNC1 [Example 287, 3-[(1S)-1-[7-[5-chloro-3-methyl-2-[[(3S)-3-piperidyl]oxy]phenyl]thieno[3,2-b]pyridin-2-yl]ethyl]-1-methyl-pyrimidine-2,4-dione; 2,2,2-trifluoroacetic acid] |
| < 1000 | Cc1cc(Cl)cc(-c2ncnc3cc(CN4C(=O)c5ccccc5C4=O)sc23)c1O[C@@H]1CNC[C@@H]1F [Example 149, 2-((4-(5-Chloro-2-(((3R,4S)-4-fluoropyrrolidin-3-yl)oxy)-3-methylphenyl)thieno[3,2-d]pyrimidin-6-yl)methyl)isoindoline-1,3-dione] |
| 10000 to 30000 | Cc1cc(Cl)cc(-c2ncnc3ccsc23)c1O[C@H]1CCCNC1 [Example 262, (S)-4-(5-Chloro-3-methyl-2-(piperidin-3-yloxy)phenyl)thieno[3,2-d]pyrimidine] |
| 10000 to 30000 | Cc1cc(Cl)cc(-c2ccnc3cc(CO)sc23)c1OC[C@@H]1CCN1 [Example 18, (S)-(7-(2-(Azetidin-2-ylmethoxy)-5-chloro-3-methylphenyl)thieno[3,2-b]pyridin-2-yl)methanol] |
| < 1000 | Cc1cc(Cl)cc(-c2ccnc3cc(CN4C(=O)CCCC4=O)sc23)c1O[C@H]1CCCNC1 [Example 237, (S)-1-((7-(5-Chloro-3-methyl-2-(piperidin-3-yloxy)phenyl)thieno[3,2-b]pyridin-2-yl)methyl)piperidine-2,6-dione] |

Same assay, conditions: recombinant full-length USP7 62 pM; ubiquitin-rhodamine 100 nM; 30-minute incubation, 1 hour reaction at room temperature; read-out: Potency (USP7 IC50)

| Compound | IC50 [nM] |
| --- | --- |
| Cc1cc(Cl)cc(-c2ccnc3cc(Cn4c(=O)ccn(CC(F)(F)F)c4=O)sc23)c1OC1CCC(O)CC1 (stereo not shown) [Example 677, 3-[[7-[5-chloro-2-(4-hydroxycyclohexoxy)-3-methyl-phenyl]thieno[3,2-b]pyridin-2-yl]methyl]-1-(2,2,2-trifluoroethyl)pyrimidine-2,4-dione] | < 1000 |
| COC1CCN(C2CC(Oc3c(C)cc(Cl)cc3-c3ccnc4cc(Cn5c(=O)ccn(CC(F)(F)F)c5=O)sc34)C2)C1 (stereo not shown) [Example 684, 3-[[7-[5-chloro-2-[3-(3-methoxypyrrolidin-1-yl)cyclobutoxy]-3-methyl-phenyl]thieno[3,2-b]pyridin-2-yl]methyl]-1-(2,2,2-trifluoroethyl)pyrimidine-2,4-dione; 2,2,2-trifluoroacetic acid] | < 1000 |

Same assay, conditions: recombinant full-length USP7 62 pM; ubiquitin-rhodamine 100 nM; 30-minute pre-incubation, 1 hour reaction at room temperature; read-out: Potency (USP7 IC50)

| Compound | IC50 [nM] |
| --- | --- |
| Cc1cc(Cl)cc(-c2ccnc3cc(Cn4c(=O)ccn(CC(F)(F)F)c4=O)sc23)c1O[C@@H]1CNC[C@H]1C [Example 628, 3-[[7-[5-chloro-3-methyl-2-[(3S,4R)-4-methylpyrrolidin-3-yl]oxy-phenyl]thieno[3,2-b]pyridin-2-yl]methyl]-1-(2,2,2-trifluoroethyl)pyrimidine-2,4-dione] | < 1000 |
| Cc1cc(Cl)cc(-c2ncnc3cc(Cn4c(=O)c(F)cn(C(C)C)c4=O)sc23)c1O[C@H]1CCCNC1 [Example 548, 3-[[4-[5-chloro-3-methyl-2-[[(3S)-3-piperidyl]oxy]phenyl]thieno[3,2-d]pyrimidin-6-yl]metthyl]-5-fluoro-1-isopropyl-pyrimidine-2,4-dione] | < 1000 |
| Cc1cc(C(F)(F)F)cc(-c2ccnc3cc(Cn4c(=O)[nH]cc(C)c4=O)sc23)c1O[C@@H]1CNC[C@@H]1F [Example 434, 3-[[7-[2-[(3R,4S)-4-fluoropyrrolidin-3-yl]oxy-3-methyl-5-(trifluoromethyl)phenyl]thieno[3,2-b]pyridin-2-yl]methyl]-5-methyl-1H-pyrimidine-2,4-dione] | < 1000 |
| Cc1cc(Cl)cc(-c2ccnc3cc(Cn4c(=O)c(F)cn(CC(F)(F)F)c4=O)sc23)c1O[C@@H]1CCNC[C@@H]1C [Example 551, 3-[[7-[5-chloro-3-methyl-2-[[(3S,4R)-3-methyl-4-piperidyl]oxy]phenyl]thieno[3,2-b]pyridin-2-yl]methyl]-5-fluoro-1-(2,2,2-trifluoroethyl)pyrimidine-2,4-dione] | < 1000 |
| Cc1cc(Cl)cc(-c2ccnc3cc(Cn4c(=O)ccn(C(C)C(F)(F)F)c4=O)sc23)c1O[C@H]1CCCNC1 (stereo partly drawn) [Example 575, 3-[[7-[5-chloro-3-methyl-2-[[(3S)-3-piperidyl]oxy]phenyl]thieno[3,2-b]pyridin-2-yl]methyl]-1-(2,2,2-trifluooro-1-methyl-ethyl)pyrimidine-2,4-dione] | < 1000 |
| Cc1cc(Cl)cc(-c2ccnc3cc(CN4C(=O)CCC4=O)sc23)c1OC1CNCc2ccccc21 (stereo not shown) [Example 429, 1-[[7-[5-chloro-3-methyl-2-(1,2,3,4-tetrahydroisoquinolin-4-yloxy)phenyl]thieno[3,2-b]pyridin-2-yl]methyl]pyrrolidine-2,5-dione] | < 1000 |
| Cc1cc(Cl)cc(-c2ccnc3cc(Cn4c(=O)ccn(C)c4=O)sc23)c1O[C@@H]1CN(C)C[C@@H]1F [Example 458, 3-[[7-[5-chloro-2-[(3R,4S)-4-fluoro-1-methyl-pyrrolidin-3-yl]oxy-3-methyl-phenyl]thieno[3,2-b]pyridin-2-yl]methyl]-1-methyl-pyrimidine-2,4-dione; 2,2,2-trifluoroacetic acid] | < 1000 |
| COC[C@@H]1C[C@H](Oc2c(C)cc(Cl)cc2-c2ccnc3cc(Cn4c(=O)ccn(CC(F)(F)F)c4=O)sc23)CN1 [Example 647, 3-[[7-[5-chloro-2-[(3S,5S)-5-(methoxymethyl)pyrrolidin-3-yl]oxy-3-methyl-phenyl]thieno[3,2-b]pyridin-2-yl]methyl]-1-(2,2,2-trifluoroethyl)pyrimidine-2,4-dione] | < 1000 |

The remaining lines, values ahead:

| IC50 [nM] | Compound |
| --- | --- |
| < 1000 | Cc1cc(Cl)cc(-c2ccnc3cc(Cn4c(=O)ccn(CC(F)(F)F)c4=O)sc23)c1O[C@H]1CCNC[C@H]1C [Example 565, 3-[[7-[5-chloro-3-methyl-2-[[(3R,4S)-3-methyl-4-piperidyl]oxy]phenyl]thieno[3,2-b]pyridin-2-yl]methyl]-1-(2,2,2-trifluoroethyl)pyrimidine-2,4-dione] |
| < 1000 | Cc1cc(Cl)cc(-c2ccnc3cc(Cn4c(=O)ccn(CC(F)(F)F)c4=O)sc23)c1O[C@@H]1CN[C@@H](C)C1 [Example 632, 3-[[7-[5-chloro-3-methyl-2-[(3S,5S)-5-methylpyrrolidin-3-yl]oxy-phenyl]thieno[3,2-b]pyridin-2-yl]methyl]-1-(2,2,2-trifluoroethyl)pyrimidine-2,4-dione] |
| < 1000 | Cc1cc(Cl)cc(-c2ccnc3cc(Cn4c(=O)ccn(CC(F)(F)F)c4=O)sc23)c1O[C@H]1CNC[C@H]1C [Example 626, 3-[[7-[5-chloro-3-methyl-2-[(3R,4R)-4-methylpyrrolidin-3-yl]oxy-phenyl]thieno[3,2-b]pyridin-2-yl]methyl]-1-(2,2,2-trifluoroethyl)pyrimidine-2,4-dione] |
| < 1000 | Cc1cc(C(F)(F)F)cc(-c2ccnc3cc(Cn4c(=O)ccn(C)c4=O)sc23)c1O[C@H]1CCCNC1 [Example 445] |
| < 1000 | Cc1cc(Cl)cc(-c2ccnc3cc(Cn4c(=O)ccn(C)c4=O)sc23)c1OC1CC2CC1N(C)C2 (stereo not shown) [Example 465] |
